Assay results reported in patent US20250289827A1, “MORPHIC FORMS OF A MUTANT BRAF DEGRADER AND METHODS OF MANUFACTURE THEREOF” (C4 THERAPEUTICS, INC., priority 2022, published 2025).
Structures can show the parent of a compound that is named as a salt. Where two headings read alike, the source gives them in different places.

How the values were obtained:
Type in all cases: physicochemical
[1] = Characterization of salt forms (XRPD, DSC, TGA, KF, HPLC, NMR/IC); conditions: for Melting onset (DCS, ° C.): Tonset
Procedure: Salt Forms identified in the investigation (Table 16) were further characterized by XRPD, DCS, TGA, KF, HPLC and ^1H NMR/IC (Table 19).
About 419 mg of sodium salt Form F was obtained as off-white solid in 76% yield.

[2] = Equilibration under a temperature cycle (XRPD); conditions: 2-methyltetrahydrofuran, about 8 cycles
Procedure: The equilibration was executed with a stirring bar on a magnetic stirring plate at a rate of 300 rpm. The obtained suspensions were filtered through a 0.45 µm nylon membrane filter by centrifugation at 14,000 rpm. Solid parts (wet cakes) were investigated by XRPD.

[3] = Hygroscopicity of sodium salt Form F by DVS at 25° C.; conditions: for Form and crystallinity change after DVS test: DVS 25° C.
Procedure: Hygroscopicity of sodium salt Form F was evaluated by dynamic vapor sorption (DVS) test at 25° C.

[4] = Bulk stability of sodium salt Form F (1 week stress); conditions: for Bulk (XRPD) / Color / Purity, Bulk (HPLC): Solid state; for Decrease in chemical purity: one week stress at 25° C./92% RH
Procedure: Sodium salt Form F was placed at 25° C./92% RH in an open container, at 40° C./75% RH in an open container and at 60RC in a closed container for 1 week. Samples after the stress were characterized by XRPD and HPLC and inspected for color change.

[5] = Solubility in aqueous pH buffers and bio-relevant fluids at 37° C.; conditions: for XRPD 24 h: residual solid
Procedure: Solubility of the Form B and sodium salt Form F was measured in 7 aqueous pH buffers and bio-relevant fluids including pH 1.2 HCl solution (0.2N), pH 4.5 acetate buffer (50 mM), pH 6.8 phosphate buffer (50 mM), pH 2.0 SGF, pH 6.5 FaSSIF-v1, pH 5.0 FeSSIF-v1 and water at 37° C. for 2 h and 24 h, respectively.
Accurate 20 mg of the Form B was weighed into a 20 mL glass vial. Then, 10 mL of solubility medium was added. The sodium salt Form F amount used was equivalent to 20 mg anhydrous form. Obtained suspensions were stirred at 37° C. at 400 rpm and sampled at 2 hours and at 24 hours, respectively. The samples were centrifuged at 37° C. at 4,000 rpm for 4 min. Supernatants were analyzed by HPLC and pH meter for solubility and pH value, respectively. Residual solids (wet cakes) from the 24 hours samples were also characterized by XRPD to determine physical form.

[6] = Photostability evaluation of sodium salt Form F
[7] = 25° C./92% RH, open container, 1 week
[8] = 40° C./75% RH, open container, 1 week
[9] = 60° C., tight container, 1 week
[10] = FaSSIF-v1, pH 6.5, 37° C., LOQ: 1.5 μg/mL
[11] = pH 1.2 HCl solution (0.2N), 37° C.
[12] = pH 4.5 acetate buffer (50 mM), 37° C.
[13] = pH 4.5 acetate buffer (50 mM), 37° C., LOQ: 1.5 μg/mL
[14] = pH 6.8 phosphate buffer (50 mM), 37° C.
[15] = pH 6.8 phosphate buffer (50 mM), 37° C., LOQ: 1.5 μg/mL
[16] = Solid state, photo (visible light, 1.2 million lux-hrs)

CCN(C)S(=O)(=O)[N-]c1ccc(F)c(Oc2ccc3ncn([C@H]4COC5(CCN(C(=O)CC6(O)CCN(c7cc8c(cc7F)c(N7CCC(=O)NC7=O)nn8C)CC6)CC5)C4)c(=O)c3c2)c1C#N.[Na+] [Compound 1 sodium salt Form E]
Melting onset (DCS, ° C.) ([1]; listed as Sodium salt Form E): Tonset 228.7 °C | Weight loss (TGA) ([1]; at 180° C.): 10.8% at | Enthalpy (DSC, J/g) ([1]; listed as Sodium salt Form E): 26.01 J/g | Water content (by KF) ([1]; listed as Sodium salt Form E): 10.2% by % by weight

CCN(C)S(=O)(=O)[N-]c1ccc(F)c(Oc2ccc3ncn([C@H]4COC5(CCN(C(=O)CC6(O)CCN(c7cc8c(cc7F)c(N7CCC(=O)NC7=O)nn8C)CC6)CC5)C4)c(=O)c3c2)c1C#N.[K+] [Compound 1 potassium salt Form G]
Weight loss (TGA) ([1]; at 170° C.): 4.5% at 170° C., | Weight loss (TGA) ([1]; at 170° C.-230° C.): 4.8% at 170° C.-

CCN(C)S(=O)(=O)Nc1ccc(F)c(Oc2ccc3ncn([C@H]4COC5(CCN(C(=O)CC6(O)CCN(c7cc8c(cc7F)c(N7CCC(=O)NC7=O)nn8C)CC6)CC5)C4)c(=O)c3c2)c1C#N [Compound 1 Form C]
Form conversion on temperature cycling [2]: converted to more stable Form B | Form conversion on temperature cycling ([2]; listed as Form C): converted to anhydrate Form B

CCN(C)S(=O)(=O)[N-]c1ccc(F)c(Oc2ccc3ncn([C@H]4COC5(CCN(C(=O)CC6(O)CCN(c7cc8c(cc7F)c(N7CCC(=O)NC7=O)nn8C)CC6)CC5)C4)c(=O)c3c2)c1C#N.[Na+] [Compound 1 sodium salt Form D]
Melting onset (DCS, ° C.) ([1]; listed as Sodium salt Form D): Tonset 229.5 °C | Weight loss (TGA) ([1]; at 150° C.): 6.9% at | Enthalpy (DSC, J/g) ([1]; listed as Sodium salt Form D): 27.83 J/g

CCN(C)S(=O)(=O)[N-]c1ccc(F)c(Oc2ccc3ncn([C@H]4COC5(CCN(C(=O)CC6(O)CCN(c7cc8c(cc7F)c(N7CCC(=O)NC7=O)nn8C)CC6)CC5)C4)c(=O)c3c2)c1C#N.[Na+] [Compound 1 sodium salt Form F]
1st desorp. Weight % change ([3]; 0% RH, 25° C.): 0.0% | 2nd sorp. Weight % change ([3]; 0% RH, 25° C.): 0.0% | 1st desorp. Weight % change ([3]; 10% RH, 25° C.): 0.6% | 2nd sorp. Weight % change ([3]; 10% RH, 25° C.): 0.5% | 1st desorp. Weight % change ([3]; 20% RH, 25° C.): 1.2% | 2nd sorp. Weight % change ([3]; 20% RH, 25° C.): 0.8% | 1st desorp. Weight % change ([3]; 30% RH, 25° C.): 2.2% | 2nd sorp. Weight % change ([3]; 30% RH, 25° C.): 1.2% | 1st desorp. Weight % change ([3]; 40% RH, 25° C.): 3.7% | 1st sorp. Weight % change ([3]; 40% RH, 25° C.): 3.1% | 2nd desorp. Weight % change ([3]; 40% RH, 25° C.): 3.9% | 2nd sorp. Weight % change ([3]; 40% RH, 25° C.): 1.5% | 1st desorp. Weight % change ([3]; 50% RH, 25° C.): 5.0% | 1st sorp. Weight % change ([3]; 50% RH, 25° C.): 3.3% | 2nd desorp. Weight % change ([3]; 50% RH, 25° C.): 5.2% | 2nd sorp. Weight % change ([3]; 50% RH, 25° C.): 2.2% | 1st desorp. Weight % change ([3]; 60% RH, 25° C.): 6.1% | 1st sorp. Weight % change ([3]; 60% RH, 25° C.): 3.4% | 2nd desorp. Weight % change ([3]; 60% RH, 25° C.): 6.2% | 2nd sorp. Weight % change ([3]; 60% RH, 25° C.): 3.5% | 1st desorp. Weight % change ([3]; 70% RH, 25° C.): 7.5% | 1st sorp. Weight % change ([3]; 70% RH, 25° C.): 3.7% | 2nd desorp. Weight % change ([3]; 70% RH, 25° C.): 7.7% | 2nd sorp. Weight % change ([3]; 70% RH, 25° C.): 5.8% | 1st desorp. Weight % change ([3]; 80% RH, 25° C.): 9.7% | 1st sorp. Weight % change ([3]; 80% RH, 25° C.): 4.1% | 2nd desorp. Weight % change ([3]; 80% RH, 25° C.): 9.9% | 2nd sorp. Weight % change ([3]; 80% RH, 25° C.): 7.9% | 1st desorp. Weight % change ([3]; 90% RH, 25° C.): 15.5% | 1st sorp. Weight % change ([3]; 90% RH, 25° C.): 7.0% | 2nd desorp. Weight % change ([3]; 90% RH, 25° C.): 16.4% | 2nd sorp. Weight % change ([3]; 90% RH, 25° C.): 13.1% | 1st desorp. Weight % change ([3]; 95% RH, 25° C.): 16.7% | 1st sorp. Weight % change ([3]; 95% RH, 25° C.): 16.7% | 2nd desorp. Weight % change ([3]; 95% RH, 25° C.): 19.6% | 2nd sorp. Weight % change ([3]; 95% RH, 25° C.): 19.6% | Form and crystallinity change after DVS test [3]: no changes in crystallinity | Form and crystallinity change after DVS test ([3]; listed as sodium salt Form F): no form change and no crystallinity decrease | Hygroscopicity ([3]; below 80% RH, 25° C.): slightly hygroscopic | Water uptake ([3]; from 80% RH to 95% RH at 25° C.): 12.6% | Crystallinity change ([4]; 60° C. in a tight/closed container, 1 week): slight crystallinity decrease | Bulk (XRPD) [4, 7]: No form change | Color [4, 7]: No change of color | Purity, Bulk (HPLC) [4, 7]: 97.7% | Bulk (XRPD) [4, 8]: No form change | Color [4, 8]: No change of color | Purity, Bulk (HPLC) [4, 8]: 98.5% | Bulk (XRPD) [4, 9]: No form change, slight crystallinity decrease | Color [4, 9]: No change of color | Purity, Bulk (HPLC) [4, 9]: 98.9% | Decrease in chemical purity ([4]; listed as Form F): 1.2% | Decrease in chemical purity ([4]; listed as Sodium salt Form F): about 1.2% | Morphic form stability (form change) ([4]; one week, 25° C./92% RH open, 40° C./75% RH open, 60° C. tight container): no form change | Disproportionation after solubility test (IC) [5]: partially disproportionated | pH of supernatant 24 h ([5]; FaSSIF-v1, pH 6.5, 37° C.): (pH = 6.7) | Solubility 2 h [5, 10]: <LOQ | Solubility 24 h [5, 10]: <LOQ | Solubility 2 h ([5]; FeSSIF-v1, pH 5.0, 37° C.): 6.7 µg/mL | Solubility 24 h ([5]; FeSSIF-v1, pH 5.0, 37° C.): 10.4 µg/mL | pH of supernatant 24 h ([5]; FeSSIF-v1, pH 5.0, 37° C.): (pH = 5.1) | Solubility 2 h ([5]; SGF, pH 2.0, 37° C.): 10.9 µg/mL | Solubility 24 h ([5]; SGF, pH 2.0, 37° C.): 8.6 µg/mL | pH of supernatant 24 h ([5]; SGF, pH 2.0, 37° C.): (pH = 2.2) | Solubility 24 h ([5]; Water, 37° C.): 73.0 µg/mL | pH of supernatant 24 h ([5]; Water, 37° C.): (pH = 8.7) | Solubility 2 h ([5]; Water, 37° C., LOQ: 1.5 μg/mL): 98.8 µg/mL | pH dependence of solubility ([5]; aqueous media, 37° C.): pH dependent solubility | Solubility compared with Form B ([5]; especially pH 1.2 HCl solution, pH 4.5 acetate buffer, SGF, FeSSIF-v1, 37° C.): better solubility than that of the Form B | Solubility 2 h [5, 11]: 19.3 µg/mL | Solubility 24 h [5, 11]: 51.1 µg/mL | pH of supernatant 24 h [5, 11]: (pH = 1.0) | Crystallinity change after solubility test ([5]; pH 1.2 HCl solution and SGF): crystallinity decrease | pH of supernatant 24 h [5, 12]: (pH = 4.6) | Solubility 2 h [5, 13]: <LOQ | Solubility 24 h [5, 13]: 3.7 µg/mL | pH of supernatant 24 h [5, 14]: (pH = 6.9) | Solubility 2 h [5, 15]: <LOQ | Solubility 24 h [5, 15]: <LOQ | XRPD 24 h ([5]; FaSSIF-v1, pH 6.5, 37° C.): No form change | XRPD 24 h ([5]; FeSSIF-v1, pH 5.0, 37° C.): No form change | XRPD 24 h ([5]; Water, 37° C.): No form change | XRPD 24 h [5, 12]: No form change | XRPD 24 h [5, 14]: No form change | Chemical purity decrease after photostability evaluation [6]: about 1% | Bulk (XRPD) [6, 16]: No form change | Color [6, 16]: No change of color | Purity, Bulk (HPLC) [6, 16]: 97.9% | Purity, Control (HPLC) ([6]; photo test, control sample): 98.9% | Crystallinity by XRPD ([1]; Table 20, batch of Example 24): Medium crystallinity | DSC, heating rate [10° C./min]: Tonset ([1]; Table 20, batch of Example 24): Tonset 194.7 °C | Melting enthalpy ([1]; Table 20, batch of Example 24): 32.4 J/g | Residual solvent by ^1H NMR, weight % ([1]; Table 20, batch of Example 24): No detectable residual solvent | Water content by Karl Fischer ([1]; Table 20, batch of Example 24): 2.5 equiv. water | Water content by Karl Fischer, weight % ([1]; Table 20, batch of Example 24): 4.6 % by weight | Melting onset (DCS, ° C.) ([1]; listed as Sodium salt Form F): Tonset 197.7 °C | Weight loss (TGA) ([1]; at 100° C.): 2.7% at 100° C., | Weight loss (TGA) ([1]; at 100° C.-170° C.): 3.2% at 100° C.- | Weight loss in % at ° C. (Thermogravimetry, heating rate [10° C./min]) ([1]; at 180° C., Table 20, batch of Example 24): 4.8% at 180 °C | Water content (by KF) ([1]; listed as Sodium salt Form F): 6.2% by % by weight

CCN(C)S(=O)(=O)Nc1ccc(F)c(Oc2ccc3ncn([C@H]4COC5(CCN(C(=O)CC6(O)CCN(c7cc8c(cc7F)c(N7CCC(=O)NC7=O)nn8C)CC6)CC5)C4)c(=O)c3c2)c1C#N [Compound 1 potassium salt Form H]
Enthalpy (DSC, J/g) [1]: 33.48 J/g | Melting onset (DCS, ° C.) [1]: Tonset 221.7 °C | Weight loss (TGA) ([1]; at 170° C.): 6.6% at
